Data set [1] deals with Yersinia pestis. The data set can be described thus: Antibacterial activity against Yersinia pestis delta CO92 by broth macrodilution method. Format: functional.
For data set [2], the system named is Homo sapiens. The data set can be described thus: Free Cmax in human at 500 mg, po. Format: ADME, organism-based. Conditions: in vivo.
Data set [3] relates to Homo sapiens. The data set can be described thus: Free AUC (0 to 24 hrs) in human plasma at 500 mg, po. The class given is ADME, organism-based. Conditions: in vivo.
Data set [4] in a line: Half life in human plasma at 500 mg, po. Format: ADME, organism-based.
Data set [5] relates to Homo sapiens. Description: Free Cmax in human at 1 g, iv. Format: ADME, organism-based. Conditions: in vivo.
The subject of data set [6] is Homo sapiens. Description: Free Cmin in human at 1 g, iv. The class given is ADME, organism-based. Conditions: in vivo.
Data set [7] can be described thus: Half life in human plasma at 1 g, iv. Format: ADME, organism-based.

Converted amounts (≈) assume the structure as drawn.

The term MBC denotes the lowest tested concentration that kills the bacteria rather than only halting them. As usually defined, the MIC is the lowest concentration that inhibits growth of the organism. Lower therefore signals a more susceptible organism. The term half-life denotes the time needed for the level to fall by half in the phase considered. Higher therefore signals slow decline. Consider `C[C@H]1COc2c(N3CCN(C)CC3)c(F)cc3c(=O)c(C(=O)O)cn1c23.C[C@H]1COc2c(N3CCN(C)CC3)c(F)cc3c(=O)c(C(=O)O)cn1c23.O` [LEVOFLOXACIN], for which, in data set [1], the MBC was found to be 0.125 µg/mL and the MIC was found to be 0.06 µg/mL. Besides, in data set [2], the fCmax was determined as 3.6 mg/L. Moreover, the fAUC in data set [3] was 36000 ng·h/mL. Also, the half-life in data set [4] was 7 h.
In data set [1], `[H]/N=C(/N)N[C@H]1[C@H](O)[C@@H](O)[C@H](O[C@@H]2O[C@@H](C)[C@](O)(C=O)[C@H]2O[C@@H]2O[C@@H](CO)[C@H](O)[C@@H](O)[C@@H]2NC)[C@@H](N/C(N)=N\[H])[C@@H]1O` [STREPTOMYCIN] showed a minimal bactericidal concentration (MBC) of 2 µg/mL (≈ 3.44 µM) and a minimum inhibitory concentration (MIC) of 2 µg/mL (≈ 3.44 µM). The same compound had a fCmax in data set [5] of 38 mg/L. Further, the fCmin in data set [6] is recorded as 2 mg/L. The same compound had a half-life in data set [7] of 2.5 h.
